Test system: nitrite/nitrate (NOx)
Experiment: Nitrite/nitrate level, colitis animals, comparison with GM-20 (FIG. 35)
Type: in vivo, rats
Details: 1.11 mmol/kg body weight, vs sham control group P
Protocol: The levels of plasma nitrite/nitrate (NOx), stable end products of NO were measured by the Griess reaction. This assay depends on the reduction of nitrate to nitrite, which is then converted into a colored azo dye compound that is detected spectrophotometrically at 540 nm.
The above-described clinical studies were repeated with animals having colitis which was induced as described above. 20 animals (rats) were randomly divided into four groups, wherein group L served as sham-operated control, having no colitis, group M served as second control having colitis but receiving no further treatment, group N having colitis and being treated with 1.11 mmol/kg body weight of ASS and group O having colitis and being treated with 1.11 mmol/kg of the compound according to the invention. One day after the animals received the enema with TNBS (40 mg/kg i.c.), wherein the animals of group L only received the respective solvent, the animals of group N and O were treated with ASS and the compound according to the invention, respectively. The other animals only received the respective solvent again. Two days after the enema the effects of the treatment were determined by measurement of body weight, blood gas analysis and biopsy. […] Surgery was performed to allow registration of the hemodynamic parameters at 1 h intervals for 6 h (cardiac output [CO] data were measured only at the end of the experiments). […] In addition, fluorescence confocal endomicroscopy was performed to examine the microvasculature and morphologic changes of the mucosa of the distal colon, and full-thickness tissue samples and venous blood samples were taken to determine the biochemical changes in the colon and plasma.
The tests were conducted according to the above described protocol. […] Comparative compound GM-20 is described in the state of the art as being suitable for the therapeutic treatment pathologic disorders characterized by degranulation of the mast cells caused by immunogenic hyperstimulation (see U.S. Pat. No. 5,506,224) The nitrite/nitrate level was measured as described above.

nitrite/nitrate level: increased nitrite/nitrate level
SMILES: CC(=O)Oc1ccccc1C(=O)NCCO [GM-20]
